Laboratory results published in patent US20120232107A1, “NON-PEPTIDE ANTAGONISTS OF GASTRIN RELEASING PEPTIDE” (The Government of the United States of America as …, priority 2003, published 2012).
“Also recorded” adds a separate entry of the source. Like-named read-outs stand apart in the source and are kept apart here. Ends that are not written are not given here.

Experiments:
AM [1] = target: T1, AM (Homo sapiens, UniProt P35318); assay: Surface plasmon resonance binding to immobilized AM; settings: for Binding to AM kd: kinetic dissociation constant; for kon: read-out: Binding to AM ka; for Binding to AM KA: thermodynamic association constant
T1 construct: AM is a 52 amino acid peptide; purchased Peninsula (S. Carlos, Calif.); host or cells: synthetic peptide
T1 sequence (P35318 95-146 limits assumed): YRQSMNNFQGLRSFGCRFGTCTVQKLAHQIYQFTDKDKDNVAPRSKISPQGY
Experimental: Characterization of the binding between AM and the small molecules was performed immobilizing 3 μg of AM on a CM5 sensor chip by N-hydroxysuccinimide activation, followed by covalent amino coupling of the peptide to the surface, using BIAcore 3000 (Piscataway, N.J.). The remaining free surface was blocked with 1 mM ethanolamine and the matrix washed with 0.5 M NaCl solution and then re-equilibrated with binding buffer (1:200 DMSO in PBS). Eight different dilutions of each small molecule were prepared in binding buffer with concentrations ranging from 0 to 10 μM and injected from low to high concentration. Each injection was followed by a matrix regeneration step. Mass transfer control experiments were performed by injecting the same concentration of each small molecule at different flow rates (5, 15, and 75 μl/min). The data were then fitted to several models for a kinetic analysis and the binding constants calculated. The best fittings were obtained with a simple 1:1 Langmuir model.

AM [2] = target: T1, AM; assay: cAMP analysis for AM in Rat2 cells; assay type: cell-based, rat; settings: for variation of intracellular cAMP levels: Rat2 cells; for Action on second messengers: peptide AM, cAMP induced by 100 nM AM in Rat2 cells; for Response to second messengers: peptide target AM
Experimental: This cell line was obtained from the American Tissue Culture Collection (ATCC, Manassas, Va.) and maintained in RPMI-1640 supplemented with 10% fetal bovine serum (FBS, Invitrogen, Carlsbad, Calif.). Cells were seeded in 24-well plates at 2×10^4 cells/well and incubated at 37° C. in 5% CO2 until they reached 80% confluency. Before the assay, cells were incubated for 15 min in TIS medium (RPMI-1640 plus 10 μg/ml transferrin, 10 μg/ml insulin, and 50 nM sodium selenite) containing 1% BSA, 1 mg/ml bacitracin, and 100 μM isobutylmethylxanthine. Peptides and small molecules were applied in the same medium for 5 min at the indicated concentrations in a volume of 250 μl. The reaction was terminated by adding an equal volume of ice-cold ethanol. cAMP contents were measured using the Biotrac cAMP radioimmunoassay (Amersham Biosciences, Piscataway, N.J.), as described (Pio et al. (2001) J. Biol. Chem. 276, 12292-12300).

[3] = system: normotensive Lewis/ssncr rats; assay: Measurement of blood pressure in vivo, normotensive Lewis/ssncr rats; design: species or system rat; settings: for Biological activity (blood pressure): AM antagonists, 20 nmols/Kg iv; for Biological activity: negative modulators of AM
Experimental: (§1) AM is a potent and long-lasting vasodilator Therefore it was expected that AM antagonists would elevate blood pressure and AM superagonists would decrease it further. In consequence, suspected antagonists were analyzed in normotensive rats (10-week-old Lewis/ssncr males, SAIC, Frederick, Md.) and suspected superagonists in hypertensive animals (10-week-old SHR males, Taconic Farms, Germantown, N.Y.).
(§2) Animals were anaesthetized with 3% halothane, intubated, and maintained with 1% halothane in 70% nitrous oxide and 30% oxygen (VMS Anesthesia Machine, Matrx, Medical Inc., Orchard Park, N.Y.) at 82 strokes/min. Rectal temperature was monitored through the experiment. A PE50 catheter was placed on the right femoral artery and arterial blood pressure was recorded through a P23XL transducer (Grass Instruments, Quincy, Mass.). Peptides and small molecules were injected into the right femoral vein through another catheter. All procedures were performed under a protocol approved by the National Institutes of Health.

GRP [4] = target: T2, GRP (Homo sapiens, UniProt P07492); assay: Ca2+ analysis for GRP in H-1299 cells; assay type: cell-based
T2 construct: GRP is a 27 amino acid peptide; purchased Peninsula (S. Carlos, Calif.); host or cells: synthetic peptide
T2 sequence (P07492 24-50 limits assumed): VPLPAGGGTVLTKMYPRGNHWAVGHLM
Experimental: After washing two times with TIS, 2 ml of cell suspension were placed in a Delta PTI Scan 1 spectrofluorimeter (Photon Technology International, South Brunswick, N.J.) equipped with a stir bar and water bath (37° C.). Fluorescence was measured at dual excitation wavelengths of 340 nm and 380 nm using an emission wavelength of 510 nm.

GRP [5] = target: T2, GRP; assay: IP3 analysis for GRP in H-1299 cells; assay type: cell-based; settings: for Action on second messengers: peptide GRP, IP3 or Ca2+ levels induced by GRP in H1299 cells
Experimental: This cell line was obtained from ATCC and cultured as the other cell lines. The signal transduction pathway for GRP includes elevation of intracellular levels of IP3 and Ca^2+ and these were investigated as previously shown (Ryan et al. (1998) J. Biol. Chem., 273, 13613-13624). Briefly, to quantify IP3, contents cells were subcultured into 24-well plates (5×10^4 cells/well). After a 24 h incubation period at 37° C., the cells were incubated with 3 μCi/ml myo-[^3H]inositol in growth medium supplemented with 2% FBS for an additional 24 h. Incubation volumes were 500 μl of assay buffer/well containing 135 mM sodium chloride, 20 mM HEPES (pH 7.4), 2 mM calcium chloride, 1.2 mM magnesium sulfate, 1 mM EGTA, 20 mM lithium chloride, 11.1 mM glucose, and 0.05% BSA (v/v) with or without any of the molecules studied at 37° C. for 30 min. Experiments were terminated with 1 ml of ice-cold hydrochloric acid/methanol (0.1%, v/v). [^3H]IP3 was eluted off Dowex AG-1-X8 anion exchange columns with 2 ml of 1 mM ammonium formate and 100 mM formic acid. Each of the eluates was collected and mixed with 10 ml of scintillation mixture (BioSafe, Research Products International Corp, Mount Prospect, Ill.), and the radioactivity was measured in a LS 3801 β counter (Beckman, Somerset, N.J.).

hypertensive SHR rats = assay: Measurement of blood pressure in vivo, hypertensive SHR rats; design: species or system rat; settings: for decrease in blood pressure from basal levels: 20 nmols/Kg intravenous; for decrease in blood pressure from basal levels / Biological activity (blood pressure): hypertensive rats; for Biological activity (blood pressure): AM superagonists, 20 nmols/Kg iv
Experimental: as §1, §2

AM [6] = target: T1, AM; assay: Primary screening: interference with binding of AM to its blocking monoclonal antibody; settings: 1 μM compound
Experimental: Human synthetic AM was solid-phased into PVC 96-well plates (Fisher Scientific, Pittsburgh, Pa.) by incubating 50 μl of AM (at 1 nmols/μl) per well for 1 h. To solid-phase […] into the plates, these were previously treated with glutaraldehyde as described (Kasprzyk et al. (1988) Anal. Biochem. 174, 224-234). After discarding the coating solution, the plates were blocked with 200 μl per well of 1% bovine serum albumin (BSA) in phosphate buffer saline (PBS). After 1 h, this solution was aspirated off and 50 μl containing 1 μM of one of the compounds of the library in PBS was added per well. Immediately after, 50 μl of labeled antibody (at 2.4 μg/ml) were added on each well and the solution was allowed to react for 1 h. Following 3 thorough washes with 1% BSA in PBS to remove the unbound antibodies, peroxidase activity was developed using o-phenylenediamine dihydrochloride (Sigma) as a substrate. The reaction product was quantified with a plate reader (Spectra Rainbow, Tecan, Austria) at 450 nm. Each plate contained several internal controls including wells without any coating that are used to calculate non-specific binding; wells where no potential antagonists were added, which provided maximum binding; and wells where the unlabeled antibody (at 1.2 μg/ml) substituted the small molecule, as a positive inhibition control (FIG. 1B). […]

GRP-induced angiogenesis = assay: Directed in vivo angiogenesis assay (DIVAA); design: species or system mice; settings: 1 nM GRP
Experimental: Analysis and quantitation of angiogenesis was done using DIVAA as previously described (Martinez et al. (2002) J Natl Cancer Inst 94, 1226-37). Briefly, 10 mm long surgical-grade silicone tubes with only one end open (angioreactors) were filled with 20 μl of matrigel alone or mixed with GRP and the small molecules at the indicated concentrations. After the matrigel solidified, the angioreactors were implanted into the dorsal flanks of athymic nude mice (NCI colony). After 11 days, the mice were injected iv with 25 mg/ml FITC-dextran (100 μl/mouse, Sigma) 20 min before removing angioreactors. Quantitation of neovascularization in the angioreactors was determined as the amount of fluorescence trapped in the implants and was measured in a HP Spectrophotometer (Perkin Elmer).

[7] = system: Bovine retinal microvascular endothelial cells; assay: Cord formation assay in Matrigel; assay type: cell-based; settings: 5 nM GRP alone
Experimental: Formation of tube-like structures was performed as described in Kubota et al. (1988) J. Cell Biol. 107, 1589-1598; Nam et al. (2003) Phytother. Res. 17, 107-111; and Macpherson et al. (2003) Mol Cancer Ther 2, 845-54. Briefly, a thin layer of Matrigel (Collaborative Biomedical Products, Bedford, Mass.) was allowed to polymerize at the bottom of 24-well plates. […] After an overnight incubation at 37° C., the tubular structures were photographed (3 pictures per well at 10×) and the number of knots per photographic field were counted as a measure of lattice complexity.

[8] = unit inferred, read-out: calculated KD

CCN1CCC(O)(C(C(=O)O)c2ccccc2)CC1 (stereo not drawn) [compound 16311]
Binding to AM kd (AM [1]): 1.02e-05 s⁻¹
kon (AM [1]): 1550 M⁻¹ s⁻¹
Binding to AM KA (AM [1]): 1.52e+08 M⁻¹
Kd (AM [1]; [8]): 6.56 nM
variation of intracellular cAMP levels (AM [2]; in the presence of 100 nM AM): most active antagonists
Action on second messengers (AM [2]): Antagonists
Response to second messengers (AM [2]): Neg. modul.
elevation in blood pressure, difference from basal levels ([3]; 20 nmols/Kg intravenous, normotensive rats): 127±47 mm Hg
Biological activity (blood pressure) ([3]; normotensive rats): Elevates blood
Biological activity [3]: Vasodilator

CCN(CC)CCC(O)(Cc1ccccc1)C(C(=O)O)c1ccccc1 (stereo not drawn) [compound 50161]
variation of intracellular cAMP levels (AM [2]; in the presence of 100 nM AM): most active antagonists
Action on second messengers (AM [2]): Antagonists

Oc1c[n+](CC[n+]2cc(O)on2)no1 [compound 54671]
Ca2+ response elicited by 1 nM GRP (GRP [4]; H1299 cells pre-exposed to compound (1 min)): dramatically reduces
Binding to AM (AM [1]; immobilized AM): not to bind; also recorded: No binding
Action on second messengers (GRP [5]): Antagonists
Response to second messengers (GRP [5]; peptide target GRP): Neg. modul.

CS(=O)(=O)OC1CN2CCC1CC2 (stereo not drawn) [compound 79422]
variation of intracellular cAMP levels (AM [2]; in the presence of 100 nM AM): antagonist
Action on second messengers (AM [2]): Antagonists

OC(COc1ccccc1)CN1CCCCC1 (stereo not drawn) [compound 89435]
Binding to AM kd (AM [1]): 0.000871 s⁻¹
kon (AM [1]): 1020 M⁻¹ s⁻¹
Binding to AM KA (AM [1]): 1.18e+06 M⁻¹
Kd (AM [1]; thermodynamic dissociation constant, read-out: Binding to AM KD): 851 nM
variation of intracellular cAMP levels (AM [2]; in the presence of 100 nM AM): most active antagonists
Action on second messengers (AM [2]): Antagonists
Response to second messengers (AM [2]): Neg. modul.
Biological activity (blood pressure) ([3]; normotensive rats): Elevates blood
Biological activity [3]: Vasodilator

OCCCN=C1CCCCC1 [compound 128911]
Binding to AM kd (AM [1]): 0.000892 s⁻¹
kon (AM [1]): 304 M⁻¹ s⁻¹
Binding to AM KA (AM [1]): 341000 M⁻¹
Kd (AM [1]; [8]): 2930 nM
Action on second messengers (AM [2]): Superagonists
Response to second messengers (AM [2]): Posit. modul.
decrease in blood pressure from basal levels (hypertensive SHR rats): 62±21 mm Hg
Biological activity (blood pressure) (hypertensive SHR rats): Reduces blood
Biological activity (hypertensive SHR rats; positive modulator of AM): Vasopressor

Nc1nc(=O)c2[nH]cnc2n1O [compound 145425]
Action on second messengers (AM [2]): Superagonists
decrease in blood pressure from basal levels (hypertensive SHR rats): 55±24 mm Hg
Biological activity (blood pressure) (hypertensive SHR rats): Reduces blood

O=NN(Cc1ccc(Cl)cc1)C(C(=O)O)c1ccccc1 (stereo not drawn) [compound 372874]
Action on second messengers (GRP [5]): Superagonist

Nn1c(CCCCCCCCc2nnc(COc3ccc4ccccc4c3O)n2N)nnc1COc1ccc2ccccc2c1O [compound 697162]
Action on second messengers (AM [2]): Superagonists

c1ccc(Nn2c(CCCCCCCCc3nnc(COc4ccccc4)n3Nc3ccccc3)nnc2COc2ccccc2)cc1 [compound 697165]
competition with labeled blocking monoclonal antibody for AM-coated plate (AM [6]): successful competitors
dose dependence of cAMP elevation (AM [2]; in the presence of 100 nM AM): dose-dependent elevation of cAMP
variation of intracellular cAMP levels (AM [2]; in the presence of 100 nM AM): superagonist
Action on second messengers (AM [2]): Superagonists

GRP: Synthetic human gastrin releasing peptide, 27 amino acid peptide hormone (VPLPAGGGTVLTKMYPRGNHWAVGHLM; ends and bridges not checked; UniProt P07492 24-50, looked up) [reference compound]
angiogenic potential in vivo (GRP-induced angiogenesis): exhibits angiogenic potential in vivo
intracellular Ca2+ (GRP [4]; 1 nM GRP alone, H1299 cells): marked elevation
number of knots per photographic field [7]: 37±5
